Measurements reported in PubChem BioAssay (NCI).
Several values for one entry are separate records, joined by “and”; a condition that tells them apart may be missing. Equal values may be shown once.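 Where inhibition never reached the appropriate level, the endpoint shown equals the highest concentration tested. Otherwise, values were interpolated linearly from a five-concentration, 48-hour dose response in 96-well plates. The concentration for 50% growth inhibition is given as GI50. TGI denotes the concentration required for complete inhibition of growth.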

What was measured:
Experiment in all cases: NCI tumour cell line growth inhibition, 48 h
DMS 273 small cell lung = tested on: DMS 273 small cell lung
HOP-18 NSCLC = tested on: HOP-18 NSCLC
KM20L2 colon = tested on: KM20L2 colon
LXFL 529 NSCLC = tested on: LXFL 529 NSCLC
M19-MEL melanoma = tested on: M19-MEL melanoma
SNB-78 CNS = tested on: SNB-78 CNS
XF 498 CNS = tested on: XF 498 CNS
MDA-N = tested on: MDA-N
RXF-631 renal = tested on: RXF-631 renal
P388/ADR leukemia = tested on: P388/ADR leukemia
SN12K1 renal = tested on: SN12K1 renal

Row | Compound | TGI (DMS 273 small cell lung) [µM] | TGI (HOP-18 NSCLC) [µM] | TGI (KM20L2 colon) | TGI (LXFL 529 NSCLC) [µM] | TGI (M19-MEL melanoma) | TGI (SNB-78 CNS) [µM] | TGI (XF 498 CNS) [µM] | TGI (MDA-N) | TGI (RXF-631 renal) [µM] | also measured
1 | C[C@]12CCC[C@H](Cl)C1(O)C[C@H](C(=O)O)CC2 (stereo partly drawn) | > 100 | > 100 | > 100 µM | > 100 | > 100 µM | > 100 | > 100 |  |  | 
2 | CC(C)C1OC(=O)C=C1Sc1ccccc1 (stereo not drawn) |  |  |  |  |  |  |  | > 100 µM |  | 
3 | COc1ccc(/C=C2\CCCCC2=O)cc1 | > 100 | > 100 | > 100 µM | > 100 | > 100 µM | > 100 | > 100 |  |  | 
4 | CCCCCC(O)C1C(=O)OC(C)C(O)/C=C/C=C/C=C/C=C\C=C(\C)C(O)CC(O)CC(O)CC(O)CC(O)CC(O)CC1O (stereo not drawn) |  |  |  |  |  |  |  | > 100 µM |  | GI50 (MDA-N): > 100 µM
5 | CC(C)c1ccccc1NC(=O)C(=O)Cc1nc2ccccc2s1 | > 100 | > 100 | > 100 µM | > 100 | > 100 µM | > 100 |  |  | > 100 | 
6 | C/C(=N\NC(=O)c1ccncc1)c1ccc2ccccc2c1O |  |  |  |  |  |  |  | > 100 µM |  | 
7 | CC(=O)OC1CC(n2cc(F)c(=O)[nH]c2=O)OC1CO (stereo not drawn) | > 47 | > 100 | > 100 µM | 16.4 | > 100 µM | > 100 | 83.8 | > 100 µM |  | 
8 | C1CCN(CCC2CCCCN2)CC1 (stereo not drawn) |  |  |  |  |  |  |  | > 100 µM |  | 
9 | CC[C@H]1CN2CCc3cc(OC)c(OC)cc3[C@@H]2C[C@@H]1C[C@H]1NCCc2cc(O)c(OC)cc21 |  | 0.793 | 0.0302 µM and 0.136 µM |  | 0.0492 µM and 0.0178 µM and 0.0876 µM |  | 0.0388 | 0.0354 µM and 0.141 µM |  | GI50 (HOP-18 NSCLC): 0.0284 µM and 0.13 µM; GI50 (LXFL 529 NSCLC): 0.0118 µM; GI50 (MDA-N): 0.0127 µM; GI50 (P388/ADR leukemia): 0.0609 µM; TGI (P388/ADR leukemia): 29.6 µM; GI50 (SN12K1 renal): 0.025 µM; TGI (SN12K1 renal): 0.191 µM; GI50 (SNB-78 CNS): 0.0266 µM and 0.0502 µM; GI50 (XF 498 CNS): 0.025 µM
10 | CSc1cnn(CCC#N)c(=O)n1 |  |  |  |  |  |  |  | > 100 µM |  | 
11 | COc1ccc(C2=NNC(=O)OC2c2ccccc2)cc1 (stereo not drawn) |  | > 100 | > 100 µM | > 100 | > 100 µM | > 100 | > 100 |  | > 100 | 
12 | CCn1cc(/C=C/C(C)c2cn(CC)c(=O)[nH]c2=O)c(=O)[nH]c1=O (stereo not drawn) | > 100 | > 100 | > 100 µM | > 100 | > 100 µM |  |  |  | > 100 | 
13 | CCn1c2c(n(CC)c1=S)-c1c(n(CC)c(=S)n1CC)SSSS2 | 33.1 | 22 | 29.5 µM | 5.97 | 22.1 µM | 28.1 | 4.08 |  | 24.4 | 
14 | COc1cc2c(cc1OC)-c1cc3cc(OC)c(OC)cc3n1CC2 |  |  | > 100 µM | > 100 | > 100 µM | > 100 | 59.7 |  |  | 
15 | CN(C)c1ccc(/C=C(/NC(=O)c2ccccc2)c2nc3ccc(Cl)cc3[nH]2)cc1 | > 100 | 8.45 | 84.8 µM | 97.4 | 69.6 µM | > 100 |  |  |  | 
16 | COC1(OC)CC2C=C(S(=O)(=O)c3ccccc3)C1N(Cc1ccccc1)C2=O (stereo not drawn) |  | > 100 | 97.6 µM | 44.9 | > 100 µM | 75.9 | 48.1 |  | 88.2 | 
17 | CC(=O)C1CC=C(C)CC1 (stereo not drawn) | > 100 | > 100 | > 100 µM | > 100 | > 100 µM | > 100 | > 100 |  | > 100 | 
18 | CN(C)c1ccc(N=Cc2c([O-])ccc3ccccc23)cc1.[C-]#[O+].[C-]#[O+].[Ir] |  | 27.6 | 33.4 µM | 25.9 | 30.9 µM |  | 48.4 |  |  | GI50 (HOP-18 NSCLC): 13 µM; GI50 (KM20L2 colon): 18.7 µM; GI50 (LXFL 529 NSCLC): 12.5 µM; GI50 (M19-MEL melanoma): 16.2 µM; GI50 (XF 498 CNS): 20.5 µM
19 | CCSCC(N)C(=O)O (stereo not drawn) |  |  |  |  |  |  |  | > 100 µM |  | 
20 | Brc1ccc(-c2nnc(-c3nn(-c4ccccc4)c4nc5ccccc5nc34)o2)cc1 | > 100 | > 100 | > 100 µM | > 100 |  | > 100 |  |  | > 100 | 
